The nature of data set [1]: In vivo stability of 125I/14C-IRAs in brain (acid precipitation). Set-up: species or system male CD-1 mice. The following applies: mouse, iv. The method, then:
(§1) We measured the stability of the radiolabeled IRAs in brain and blood. Following anesthetization, arterial blood and whole brain were taken at two time points (10 or 60 min) after iv injection of 3 × 10^5 cpm-1×10^6 cpm of ^125I/^14C-IRA in 0.2 ml of BSA/LR. The blood samples were allowed to clot, centrifuged at 3200 ×g for 10 min, and 50 μl of the separated serum was added to 250 μl of BSA-LR. Samples were combined with equal volume 30% TCA (300 μl), mixed, and then centrifuged for 10 min at 5400 ×g. Brains were homogenized in 800 μl of BSA-LR with a bead beater for 30 sec at 4800 rpm twice. Following centrifugation at 5400 ×g for 15 min, a portion of the resulting supernatant was added to an equal volume of 30% TCA, mixed, and then centrifuged at 5400 ×g for 10 min. The radioactivity in the resulting supernatant and pellet (Sup and Pel fractions) for serum and brain was calculated separately, and the percent of radioactivity in the precipitate was calculated using the following equation:(1) %AcidPrecip=100×Pel/Sup+Pel
(§2) To correct for degradation that might have occurred during the processing, ^125I/^14C-IRA was added to non-radioactive arterial whole blood or to whole brain and processed as above. The biological samples were corrected for degradation during processing by dividing their values by those for processing control (Pcon) values and multiplying by 100. This can sometimes result in a value greater than 100%.
(§3) Immediately after counting the radioactivity, the blood and brains from the 10 min and 6 h time points were processed as described in Section 2.5 for in vivo stability. For further comparison, data from the 1 h time point were taken from the original pharmacokinetic uptake study. The ^125I-IRA brain % acid precipitation (%AP) was divided by the ^125I-IRA serum %AP at each time point to calculate the %AP B/S ratio. This value was multiplied by the B/S ratio for each ^125I-IRA to correct for degradation over the 10 min, 1 h, or 6 h time periods. Corrected AP B/S ratios were then corrected for vascular space by subtracting the ^99mTc-Alb B/S ratio within each mouse for the 10 min and 6 h time points (AP corrected delta B/S ratio). For the 1 h time point, the average ^99mTc-Alb B/S ratio (10.03 μl/g) at 10 min across all ^125I-IRAs was used for correction. The AP corrected delta B/S ratio for each ^125I-IRA was then multiplied by the %Inj/ml within each mouse to calculate the AP corrected delta %Inj/g.

Data set [2] in a line: Octanol/buffer partition coefficient (lipid solubility). It is filed as physicochemical. The method, then:
We measured the lipid solubility of the IRAs, using octanol and PB. Briefly, 1 × 10^5 counts per minute (cpm) of each ^125I/^14C-IRA were added to triplicate tubes containing equal volumes PB and octanol (Sigma-Aldrich). This solution was vigorously mixed for 1 min and centrifuged at 5500 ×g for 10 min to separate the two phases. Aliquots of 100 μl were taken in duplicate from each phase, and total radioactivity was counted in a gamma counter (Wizard2, Perkin-Elmer) or beta counter (TriCarb 3110TR, Perkin-Elmer). The ratio of the cpm in the octanol phase to the cpm in the buffer phase equates to the mean partition coefficient (Pcoeff) and indicates lipophilicity. The log value for the coefficient can be either greater than unity, indicative of a lipophilic compound, or less than unity, indicative of a hydrophilic compound.

For data set [3] the following is noted: mouse, in vivo, iv.
Experimental: The capillary depletion method was used to separate cerebral capillaries from brain parenchyma. Anesthetized mice received an iv injection of 3 × 10^5-1×10^6 cpm of an ^125I-IRA with 5 × 10^5 cpm ^99mTc-Alb BSA-LR and 15 min later, blood and brains were collected. Whole brains were homogenized with physiological buffer (10 mM HEPES, 141 mM NaCl, 4 mM KCl, 2.8 mM CaCl2, 1 mM MgSO4, 1 mM NaH2PO4, and 10 mM D-glucose adjusted to pH 7.4) using two different sized glass dounce homogenizers, mixed with 26% dextran (Sigma-Aldrich), and centrifuged at 5400 ×g for 15 min at 4°C.[69] The pellet, containing the capillaries, and the supernatant, containing the brain parenchymal/interstitial fluid space, were carefully separated. The ratio of ^125I-IRA radioactivity in the supernatant (parenchyma) was corrected for vascular space by subtracting the B/S ratio of ^99mTc-Alb in the supernatant. The corrected parenchyma/serum and capillary/serum ratios (μl/g) were calculated as (cpm/g tissue)/(cpm/μl) serum.
A short description of data set [4]: In vivo stability of 125I/14C-IRAs in blood/serum (acid precipitation). Set-up: species or system male CD-1 mice. The following applies: mouse, iv. The method, then:
as §1, §2, §3

Data set [5] can be described thus: Brain influx and initial volume of distribution (multiple-time regression analysis). More on the design: species or system male CD-1 mice. The following applies: mouse, in vivo; for Blood to Brain Unidirectional Influx Rate (Ki): iv. The procedure:
(§4) Following anesthetization, the jugular vein and right carotid artery were exposed. Mice were given a jugular vein injection of 0.2 ml BSA-LR containing 3 × 10^5 cpm-1×10^6 cpm of an ^125I/^14C-labeled IRA and 5 × 10^5 cpm of ^99mTc-Alb. Blood samples were collected from the carotid artery at various time points from 1 to 60 min after iv injection (see Figure 1). Mice were then decapitated, and their brains were removed and weighed. After clotting, the arterial blood was centrifuged at 3200 ×g for 10 min. Levels of radioactivity in serum (50 μl) and brain were measured in a gamma counter for ^125I and ^99mTc for 3 min. After ^99mTc decay, ^14C-DA5-CH samples were solubilized with Solvable (Sigma), transferred to scintillation vials containing Ecoscint (National Diagnostics) and ^14C was measured in a beta counter. Sample injection checks were taken throughout the course of the study to calculate the mean injected cpm/mouse. To determine the rate of ^125I/^14C-IRA clearance from the serum, the results were expressed as the percentage of an injected dose in each ml of serum (%Inj/ml), which was calculated by dividing the cpm in a ml of serum (cpm/ml serum) by the cpm injected into the mouse (cpm/Inj):
To calculate the blood-to-brain unidirectional influx constant (Ki), multiple-time regression analysis was used as first described by Patlak, Blasberg, and Fenstermacher.[67],[68] The brain/serum (B/S) ratios (μl/g) of the ^125I/^14C-IRA in each gram of brain were calculated from the data in Section 2.6 and plotted against their respective exposure times as previously applied by Rhea et al. 2018.[69] Exposure time differs from clock time in that exposure time corrects for clearance of the ^125I/^14C-IRA from blood and thus, better represents the amount of ^125I/^14C-IRA available for BBB transport at any given time. Delta B/S ratios were calculated by subtracting the vascular space as measured by the B/S ratio for ^99mTc-Alb from the B/S ratio for the respective ^125I/^14C-IRA. Thus, delta B/S ratios represent material that has been taken up by or has crossed the BBB. The slope of the linear portion of the relation between delta B/S ratios and exposure time defines Ki (μl/g-min) and is reported with its error term. This represents Model 1 for DA5-CH. The y-intercept of this linear portion of the relation defines Vi, (μl/g), the initial volume of distribution in brain at t = 0, which is the functional volume per unit brain mass of a soluble compound that exchanges rapidly and reversibly with plasma.[68] Vi consists of the vascular space (Vv) and any residual space after accounting for Vv and usually represents vascular binding (Vr). Since we correct each ^125I/^14C-IRA delta B/S for vascular space, our y-intercept values likely represent vascular binding. For DA5-CH, there appeared to be rapid, early transport that would indicate a Vr equal to 0. Therefore, using Vr equal to 0, we calculated an estimate of this new Ki and refer to it throughout the manuscript as Model 2.

On the set-up of data set [6]: species or system male CD-1 mice. The following applies: mouse, in vivo, iv. The method, then: as §4
(2) %Inj/ml=100×cpm/mlserum/meancpm/Inj
The log(%Inj/ml) was plotted against time to calculate the rate of clearance from the serum. To calculate the half-time clearance in minutes, the inverse slope […] of the curve for each IRA was multiplied by 0.301 (log10[2]). The blood and brain cpm data were used for the measurement of brain influx and initial volume of distribution in brain as described in Section 2.7.

Details of data set [7]: species or system male CD-1 mice. The following applies: mouse, in vivo, iv. The method, then: Anesthetized mice were co-injected iv with 3 × 10^5 cpm-1×10^6 cpm ^125I/^14C-IRA and 5 × 10^5 cpm of ^99mTc-Alb in 0.2 ml BSA-LR with or without 1 μg of the non-radioactive IRA. Fifteen minutes after iv injection, blood was collected from the right carotid artery, and the whole brain was removed and weighed. Samples were counted for radioactivity. Results were expressed as delta B/S ratios in units of μl/g.
This is another data set of the same source.

On the set-up of data set [8]: species or system male CD-1 mice. The following applies: mouse, in vivo, iv. From the text:
This value is then multiplied by the %Inj/ml of each ^125I/^14C-IRA at each time point. After plotting the %Inj/g at each time point for each IRA, we calculated the area under the curve (AUC) to better identify the amount of brain exposure to each IRA over the entire time course.
This is another data set of the same source.

For data set [9] the following is noted: mouse, in vivo, iv; cited from earlier work.
Text: The unidirectional blood-to-brain influx rate (Ki) calculated from Figure 2c for all four IRAs tested is graphed with previously calculated Ki’s for other IRAs[50] in Figure 3 by rank.
For data set [10] the following is noted: mouse, in vivo, iv; cited from earlier work. This is another data set of the same source.
For data set [11] the following is noted: mouse, in vivo; cited from earlier work. The method, then: The rank order of IRAs showing significant brain uptake 1 h after iv injection with respect to AUCs is similar, but not identical to the rank order of their Ki’s (see Figures 5b and 3b). Less similar is the rank order of IRAs for uptake into brain parenchyma defined as the percent reaching the brain that was in its parenchyma vs. its capillaries. The rank order of parenchymal uptake was specifically DA4-JC (89.7%) = albiglutide (BAF) (89.4%) > DA3-CH (86%) > exenatide (84.2%) > Peptide 17 (73.2%) > lixisenatide (66.8%) > dulaglutide (BAF) (61.8%) > DA5-CH (57.6%) > Peptide 21 (43.6%) > liraglu ...

Like-named read-outs stand apart in the source and are kept apart here. Marks after values point to notes of the source that are not given here.

Turning to “YXEGTFTSDYSIYLDKQAAXEFVNWLLAGGPSSGAPPPSKRRQRRKKRGY-NH2 [DA5-CH, Experimental balanced GIPR/GLP-1R dual agonist; Peptide 18 of Finan et al. with extension; custom synthesized by AnaSpec]”, in data set [1], the “Percentage of labeled IRA intact, Whole Brain, 10 min” value (from here on “Percentage … Whole Brain, 10 min”) came out at 79.7 ± 12.9% and the “Percentage of labeled IRA intact, Whole Brain, 60 min” value (shortened to “Percentage … Whole Brain, 60 min”) stood at 77.61 ± 22.3%. Also, in data set [2] (shake-flask octanol / sodium phosphate buffer pH 7.5 (PB), radiolabelled IRA, gamma or beta counting, mean ± SE, triplicate tubes), the “Log Partition Coefficient (Log P)” value was -2.183 ± 0.0281. For the same substance, in data set [3], the “Percent in Parenchyma vs. Capillaries” value is 57.6%. Moreover, in data set [4], the “Percentage of labeled IRA intact, Serum, 10 min” value (“Percentage … Serum, 10 min” below) was found to be 83.83 ± 4.9% and the “Percentage of labeled IRA intact, Serum, 60 min” value (“Percentage … Serum, 60 min” below) is 49.35 ± 2.5^a %. Also, in data set [5], the “Probable Ki of DA5-CH” value was in the range of 0.24 to 2.5 µL/g/min, the “Probable Vr of DA5-CH” value was 0 to 11.2 µL/g and the “Blood to Brain Unidirectional Influx Rate (Ki)” value (“Blood” below) came out at 0.242 ± 0.128 µL/g/min. Besides, the “Half-Time Serum Clearance (t1/2)” value in [6] stood at 2.03 min. The “Whole Brain delta brain/serum ratio, Without unlabeled IRA” value in data set [7] was 26.25 ± 8.07 µL/g.
In the case of “HGEGTFTSDVSSYLEEQAAKEFIAWLVKGGG [Dulaglutide (BAF)]”, in data set [1], the “Percentage … Whole Brain, 10 min” value worked out at 58.42 ± 0.3% and the “Percentage … Whole Brain, 60 min” value is recorded as 37.47 ± 4.1%. In [2] (pH 7.5), the “Lipid Solubility Partition Coefficient” value was determined as 0.0102 ± 0.0007 and the “Log Partition Coefficient (Log P)” value is -1.991 ± 0.0287. In addition, in data set [3], the “Percent in Parenchyma vs. Capillaries” value came to 61.8%. For the same substance, in data set [4], the “Percentage … Serum, 10 min” value stood at 84.67 ± 0.8% and the “Percentage … Serum, 60 min” value is on record as 39.1 ± 1.4^a %. In addition, the “Blood” value in [5] stood at 1.095 ± 0.072 µL/g/min. In data set [6], the “Half-Time Serum Clearance (t1/2)” value stood at 6.02 min. Also, in [8], the “Percent of injected dose taken up per gram brain (%Inj/g), 10 min” value is 0.20 %Inj/g and the “Percent of injected dose taken up per gram brain (%Inj/g), 60 min” value is listed as 0.33 %Inj/g. Moreover, the “Whole Brain delta brain/serum ratio, Without unlabeled IRA” value in [7] is 17.86 ± 0.99 µL/g.
On to “HGEGTFTSDVSSYLEGQAAKEFIAWLVKGR [Albiglutide (BAF)]”, for which, in data set [1], the “Percentage … Whole Brain, 10 min” value is 43.35 ± 2.9% and the “Percentage … Whole Brain, 60 min” value is 40.9 ± 9.3%. In data set [2] (pH 7.5), the “Lipid Solubility Partition Coefficient” value is reported as 0.0132 ± 0.0040 and the “Log Partition Coefficient (Log P)” value is on record as -1.916 ± 0.121. In addition, the “Percent in Parenchyma vs. Capillaries” value in [3] amounted to 89.4%. In addition, in data set [4], the “Percentage … Serum, 10 min” value worked out at 53.96 ± 0.4% and the “Percentage … Serum, 60 min” value is on record as 20.71 ± 1.3^a %. Also, in data set [5], the “Blood” value came to 1.379 ± 0.086 µL/g/min. Besides, in data set [6], the “Half-Time Serum Clearance (t1/2)” value was 6.14 min. In addition, the “Percent of injected dose taken up per gram brain (%Inj/g), 15 min” value in [8] was 0.36 %Inj/g. Moreover, in data set [7], the “Whole Brain delta brain/serum ratio, Without unlabeled IRA” value turned out to be 39.3 ± 1.50 µL/g.
As for “exenatide: FDA-approved IRA tested in the earlier study (ref 50)”, the “Blood” value in [9] was 0.4231 µL/g/min. Further, in data set [10], the “%Inj/g by 60 min” value is on record as 0.56 %Inj/g. Also, the “Percent reaching the brain that was in parenchyma vs. capillaries” value in data set [11] is recorded as 84.2%.

(Values after publication PMC11583597, “Brain uptake pharmacokinetics of albiglutide, dulaglutide, tirzepatide, and DA5-CH in the search for new treatments of Alzheimer’s and Parkinson’s diseases” (Tissue Barriers, 2023).)
